Laboratory results taken from the supplement of paper PMC10307832.

Legend:
Assay in all cases: relative viability (nuclei count vs DMSO), 5 days (fraction); higher = more cells survive
AZ505 + Palbociclib = compound: C1CCC(CC1)N(CCNCCC2=C3C(=C(C=C2)O)NC(=O)CO3)C(=O)CCNCCC4=CC(=C(C=C4)Cl)Cl [AZ505] + CC(=O)c1c(C)c2cnc(Nc3ccc(N4CCNCC4)cn3)nc2n(C2CCCC2)c1=O [Palbociclib] (partner 0.5 µM)
Outline: (§1)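 The day after seeding in 1536-well plates, lung cancer cell lines were treated by pin tool with a single drug, or with a fixed anchor-drug dose together with five library-drug doses (not always all listed) in √10 steps. After 5 days, a combined fix-and-stain solution (final 0.05% Triton X-100, 1% formaldehyde, 1 ug/ml Hoechst) was added. Nuclei counted on 4× images gave relative viability as treated counts over vehicle counts, reported as the median of duplicate plates.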

AZ505 + Alpelisib = compound: C1CCC(CC1)N(CCNCCC2=C3C(=C(C=C2)O)NC(=O)CO3)C(=O)CCNCCC4=CC(=C(C=C4)Cl)Cl [AZ505] + Cc1nc(NC(=O)N2CCC[C@H]2C(N)=O)sc1-c1ccnc(C(C)(C)C(F)(F)F)c1 [Alpelisib] (partner 2 µM)
Outline: as §1

Dactolisib + Pictilisib = compound: Cn1c(=O)n(-c2ccc(C(C)(C)C#N)cc2)c2c3cc(-c4cnc5ccccc5c4)ccc3ncc21 [Dactolisib] + CS(=O)(=O)N1CCN(Cc2cc3nc(-c4cccc5[nH]ncc45)nc(N4CCOCC4)c3s2)CC1 [Pictilisib] (partner 1 µM)
Outline: as §1

Dactolisib + Pemetrexed = compound: Cn1c(=O)n(-c2ccc(C(C)(C)C#N)cc2)c2c3cc(-c4cnc5ccccc5c4)ccc3ncc21 [Dactolisib] + Nc1nc2[nH]cc(CCc3ccc(C(=O)N[C@@H](CCC(=O)O)C(=O)O)cc3)c2c(=O)[nH]1 [Pemetrexed] (partner 0.2 µM)
Outline: as §1

Cell Line	relative viability (AZ505 + Palbociclib; first compound 0.08 µM)	relative viability (AZ505 + Palbociclib; first compound 0.253 µM)	relative viability (AZ505 + Palbociclib; first compound 0.8 µM)	relative viability (AZ505 + Palbociclib; first compound 2.53 µM)	relative viability (AZ505 + Palbociclib; first compound 8 µM)	relative viability (AZ505 + Alpelisib; first compound 0.08 µM)	relative viability (AZ505 + Alpelisib; first compound 0.253 µM)	relative viability (AZ505 + Alpelisib; first compound 0.8 µM)	relative viability (AZ505 + Alpelisib; first compound 2.53 µM)	relative viability (AZ505 + Alpelisib; first compound 8 µM)	relative viability (Dactolisib + Pictilisib; first compound 0.002 µM)	relative viability (Dactolisib + Pictilisib; first compound 0.006325 µM)	relative viability (Dactolisib + Pictilisib; first compound 0.02 µM)	relative viability (Dactolisib + Pictilisib; first compound 0.06325 µM)	relative viability (Dactolisib + Pictilisib; first compound 0.2 µM)	relative viability (Dactolisib + Pemetrexed; first compound 0.002 µM)	relative viability (Dactolisib + Pemetrexed; first compound 0.006325 µM)	relative viability (Dactolisib + Pemetrexed; first compound 0.02 µM)	relative viability (Dactolisib + Pemetrexed; first compound 0.06325 µM)	relative viability (Dactolisib + Pemetrexed; first compound 0.2 µM)
NCI-H2009	0.191	0.203	0.174	0.153	0.235	1.07	1.11	1.12	1.1	1.13	0.961	0.853	0.727	0.498	0.322	1.09	1.07	1	0.964	0.498
HCC-15	0.78	0.714	0.686	0.847	0.739	0.773	0.926	0.918	0.809	0.933	0.762	0.746	0.707	0.392	0.343	0.215	0.22	0.26	0.25	0.231
HCC-44	0.966	1.03	0.945	0.976	0.91	0.734	0.751	0.75	0.901	0.869	0.672	0.536	0.709	0.536	0.368	0.609	0.645	0.596	0.695	0.672
COR-L23	0.259	0.253	0.264	0.284	0.281	0.532	0.646	0.463	0.624	0.598	0.925	0.656	0.546	0.177	0.151	0.194	0.198	0.195	0.197	0.183
HCC-78	0.452	0.409	0.4	0.435	0.434		0.515	0.306	0.411	0.462	0.225	0.22	0.195	0.206	0.193	0.833	0.892	0.875	0.885	0.916
NCI-H2087	0.225	0.27	0.312	0.22	0.197	0.863	1.03	1.01	1.14	0.997	1.02	0.867	0.714	0.463	0.336	0.627	0.684	0.625	0.521	0.506
BEN	0.458	0.457	0.442	0.48	0.498	0.947	1.01	0.959	1.02	1.2	0.505	0.529	0.463	0.4	0.282	0.714	0.757	0.603	0.639	0.434
LCLC-103H	0.485	0.455	0.455	0.45	0.452	0.853	0.818	0.977	0.848	0.957	0.611	0.583	0.602	0.577	0.498	0.437	0.468	0.462	0.393	0.379
